Measurements reported in US6800638B2, “Tetrahydropyridine derivatives, their preparation and their use as cell proliferation inhibitors” (Hoffman-La Roche Inc., priority 2000, dated 2004).

System: HDAC
Experiment: HDAC inhibition assay with aminocoumarin derivative of omega-acetylated lysine as substrate
Format: biochemical
Details: compound concentration 10 nM; protocol of Hoffmann et al. 1999
Procedure: To determine the HDAC inhibitory properties of the compounds of the invention an assay was performed using an aminocoumarin derivative of an omega-acetylated lysine as substrate for the enzyme. This assay has been described in detail by Hoffmann, K., et al., Nucleic Acids Res. 27 (1999) 2057-2058. Using the protocol described therein, the inhibitory effect of representative compounds was determined at a concentration of 10 nM.

Compound | Inhibitory effect at 10 nM in % [%]
O=C(CCCCCCCN1CCc2ccccc2C1)NO [Example 1, 8-(3,4-Dihydro-1H-isoquinolin-2-yl)-octanoic acid hydroxyamide] | 54
CCOc1cc2c(cc1OCC)CN(CCCCCCCC(=O)NO)CC2 [Example 5, 8-(6,7-Diethoxy-3,4-dihydro-1H-isoquinolin-2-yl)-octanoic acid hydroxyamide] | 26
COc1cc2c(cc1OC)C(c1ccccc1)N(CCCCCCCC(=O)NO)CC2 (stereo not shown) [Example 6, 8-(6,7-dimethoxy-1-phenyl-3,4-dihydro-1H-isoquinolin-2-yl)-octanoic acid hydroxyamide] | 26
O=C(CCCCCCCN1CCc2c([nH]c3ccccc23)C1)NO [Example 7, 8-(1,3,4,9-tetrahydro-β-carbolin-2-yl)-octanoic acid hydroxyamide] | 26
